Measured values as given in US6087364A, “Dopamine D4 receptor antagonists” (Warner-Lambert Company, priority 1998, dated 2000).
Read-outs that look alike come from different tables or passages of the source.

Columns and labels:
[1] = target: T1, human recombinant dopamine D4.2 receptor (Homo sapiens, UniProt P21917, DEL265-296); experiment: D4.2 dopamine receptor binding assay ([3H]spiperone, membranes of CHO K1 cells); conditions: human D4.2 receptor, 0.2 nM [3H]spiperone, 60 min, 25° C., apparent Ki from IC50 (Cheng and Prusoff)
T1 construct: expressed in transfected cells
T1 sequence (P21917 with tags, fused parts or gaps DEL265-296): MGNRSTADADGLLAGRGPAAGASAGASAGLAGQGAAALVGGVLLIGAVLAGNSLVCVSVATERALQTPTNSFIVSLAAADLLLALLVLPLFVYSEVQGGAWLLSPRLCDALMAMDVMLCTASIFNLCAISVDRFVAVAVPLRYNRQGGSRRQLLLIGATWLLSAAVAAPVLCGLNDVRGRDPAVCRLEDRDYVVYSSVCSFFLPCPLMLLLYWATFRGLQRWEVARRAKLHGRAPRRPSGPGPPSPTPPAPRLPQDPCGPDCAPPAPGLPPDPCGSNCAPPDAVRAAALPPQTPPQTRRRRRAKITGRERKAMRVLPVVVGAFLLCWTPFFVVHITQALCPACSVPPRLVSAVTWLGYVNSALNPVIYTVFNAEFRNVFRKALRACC
From the text: (§1) A cell line expressing human dopamine D2 (Long form) receptors was purchased from Oregon Health Sciences University, Portland, Oreg. The D2 receptor cDNA was subcloned into an expression vector, pRc/CMV. The plasmids were transfected by electroporation into CHO K1 cells. A single stable transfectant, resistant to the antibiotic G418, was isolated and selected for use in the binding studies. For D4 binding, CHO K1 cells stably transfected to express the human recombinant dopamine D4.2 receptor subtype, as described by Shih, et al., "The Expression and Functional Characterization of Human Dopamine D4.2 Receptor in CHO K1 Cells," Soc. Neurosci., 21(Part 1): 621 (1995).
(§2) CHO K1 cells expressing either human D2 and D4.2 receptors were grown in 162 cm^2 culture flasks in F12 medium (Gibco Laboratories, Grand Island, N.Y.) supplemented with 10% fetal bovine serum (FBS, Hyclone, Logan, Utah) in an atmosphere of 5% CO2 /95% air at 37° C. Cells were grown until confluent, after which growth medium was removed and replaced with 0.02% ethylene diamine tetracetate (EDTA) in a phosphate-buffered saline solution (Sigma Chemical Co., St. Louis, Mo.) and scraped from the flasks. The cells were centrifuged at about 1000× g for 10 minutes at […] and then resuspended in TEM buffer (25 mM Tris-HCl, pH 7.4, 5 mM EDTA, and 6 mM MgCl2) for D2 or the D4.2 buffer (50 mM Tris-HCl, pH 7.4, 5 mM EDTA, 1.5 mM CaCl2, 5 mM KC1, and 120 mM NaCl) and homogenized. The membranes were pelleted by centrifugation at 20,000× g at […] for 20 minutes. Then the pellets were resuspended in appropriate buffer at 1 mL/flask and stored at -70° C. until used in the receptor binding assay.
(§3) After 60 minutes incubation at 25° C., the incubations were terminated by rapid filtration through Whatmann GF/B glass fibre filters (soaked for 1 hour in 0.5% polyethylenimine) on a cell harvester, with three washes of 1 mL ice-cold buffer. Individual filter disks containing the bound ligand were placed in counting vials with 4 mL of scintillation fluid (Ready Gel, Beckman Instrument Inc., Fullerton, Calif.) and then counted in a Beckman LS-6800 liquid scintillation counter at an efficiency of 45%. Nonspecific binding was defined in presence of 1 mM of haloperidol.
(§4) Saturation and competition binding data were analyzed using an iterative nonlinear least-square curve-fitting Ligand program. […] Experimental compounds were made up as stock solutions in dimethyl sulfoxide (DMSO). […] Each observation was carried out in triplicate. To allow these calculations, Kd values were measured for the interaction of various ligands with the receptor.

[2] = target: human dopamine D2 (Long form) receptor (Homo sapiens, UniProt P14416); experiment: D2 dopamine receptor binding assay ([3H]spiperone, membranes of CHO K1 cells)
From the text: as §1, §2, §3, §4

[3] = system: amphetamine-stimulated locomotion; experiment: Blockade of Amphetamine-Stimulated Locomotion (BASL) in Rats; type: in vivo, Male Sprague-Dawley rats; conditions: Rattus norvegicus, 0.5 h, read-out: BASL ED50, mg/kg PO (dose which would reverse amphetamine-stimulated locomotion by 50%), drug 30 minutes prior to test, amphetamine 0.5 mg/kg IP 15 minutes prior to test, 30 minute test
From the text: Blockade of Amphetamine-Stimulated Locomotion (BASL) in Rats
Hyperactivity of brain dopamine (DA) neuronal systems is believed to contribute to the symptomology of schizophrenia. This hypothesis is supported, in part, by the ability of drugs such as the indirect DA agonist, amphetamine, to exacerbate schizophrenia. The stimulatory effect of amphetamine can be blocked by one of two mechanisms: a postsynaptic blockade of DA receptors, or by the action of DA autoreceptor agonists at inhibitory presynaptic DA receptor sites. Currently available antipsychotic drugs are DA receptor antagonists; however, these compounds can also cause extrapyramidal side effects apparently due to complete postsynaptic receptor blockade. Antipsychotic agents produce sedation (manifested as decreased locomotion) in normal animals, as well as in animals treated with psychomotor stimulants by reducing the access of endogenous DA to postsynaptic receptors in the brain.
Male Sprague-Dawley rats (Harlan Labs) were used for these studies. Drugs were dissolved in saline or water and administered either orally (PO) or intraperitoneally (IP) in volumes of 5 mL/kg. Saline control rats and amphetamine (0.5 mg/kg IP) control rats are included with each study (n=4-6 rats per treatment group). for the IP studies, amphetamine is given 20 minutes prior to the drug, after which a 30 minute locomotor activity test is conducted. For the oral study, drug is dosed 30 minutes prior to test, while amphetamine is given 15 minutes prior to test, which allows time for oral absorption. Locomotor activity (centimeters travelled per 30 minute test) is measured in 16"×16" open chambers. Amphetamine generally produces a 2- to 3-fold increase in locomotion over saline controls. Drug effects are reported as percent reversal of amphetamine-stimulated locomotion. Significant changes in amphetamine-stimulated locomotion, relative to amphetamine-treated controls, were determined by t-test.

human dopamine D2 (Long form) receptor, sequence (P14416 whole entry): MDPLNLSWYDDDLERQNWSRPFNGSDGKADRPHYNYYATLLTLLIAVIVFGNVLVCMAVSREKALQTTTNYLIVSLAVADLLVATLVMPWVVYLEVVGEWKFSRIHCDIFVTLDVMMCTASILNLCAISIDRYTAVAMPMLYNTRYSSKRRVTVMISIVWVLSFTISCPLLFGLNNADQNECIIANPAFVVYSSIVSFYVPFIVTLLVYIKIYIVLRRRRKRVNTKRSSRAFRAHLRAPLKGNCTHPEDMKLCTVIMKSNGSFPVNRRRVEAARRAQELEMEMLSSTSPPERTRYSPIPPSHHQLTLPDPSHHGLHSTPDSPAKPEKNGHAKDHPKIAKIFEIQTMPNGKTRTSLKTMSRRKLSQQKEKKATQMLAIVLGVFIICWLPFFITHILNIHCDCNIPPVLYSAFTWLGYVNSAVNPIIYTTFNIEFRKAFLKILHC

| Structure (SMILES) | Ki [1] [nM] | Ki [2] [nM] | Ki ([2]; human D2 receptor, CHO K1 membranes, 0.2 nM [3H]spiperone, 60 min, 25° C., apparent Ki from IC50 (Cheng and Prusoff)) [nM] | ED50 [3] [mg/kg] |
| --- | --- | --- | --- | --- |
| O=C1NC(CCN2CCC(=C(c3ccccc3)c3ccccc3)CC2)c2ccccc21 (stereo not drawn) [3-[2-(4-(Diphenylmethylene)-piperidin-1-yl)-ethyl]-2,3-dihydro-isoindol-1-one] | 99.7 | 2150 | – | – |
| Cc1ccc(N2CCN(CCC3NC(=O)c4ccccc43)CC2)cc1 (stereo not drawn) [3-[2-(4-P-Tolyl-piperazin-1-yl)-ethyl]-2,3-dihydro-isoindol-1-one] | 12.4 | > 5880 | – | < 1 |
| O=C1NC(CCN2CCN(c3ccccc3)CC2)c2ccccc21 (stereo not drawn) [3-[2-(4-Phenyl-piperazin-1-yl)-ethyl]-2,3-dihydro-isoindol-1-one] | 24.5 | – | – | – |
| Cc1ccc(N2CCN(CCC3NC(=O)c4ccccc43)CC2)nc1 (stereo not drawn) [3-{2-[4-(5-Methyl-pyridin-2-yl)-piperazin-1-yl]-ethyl}-2,3-dihydro-isoindol-1-one] | 22.6 | > 5880 | – | – |
| COc1ccc(N2CCN(CCC3c4ccccc4C(=O)N3C)CC2)cc1 (stereo not drawn) [3-[2-(4-p-Methoxyphenyl-piperazin-1-yl)-ethyl]-2,3-dihydro-2-methyl-isoindol-1-one] | 37.3 | > 5880 | – | – |

Continued by falling Ki [1], values first:

| Ki [1] [nM] | Ki [2] [nM] | Ki ([2]; human D2 receptor, CHO K1 membranes, 0.2 nM [3H]spiperone, 60 min, 25° C., apparent Ki from IC50 (Cheng and Prusoff)) [nM] | Structure (SMILES) | ED50 [3] [mg/kg] |
| --- | --- | --- | --- | --- |
| 42 | – | – | Cc1ccc(N2CCN(CCC3NC(=O)c4ccccc43)CC2)cc1C (single isomer, unassigned; (+)) [(+)-3-{2-[4-(3,4-Dimethyl-phenyl)-piperazin-1-yl]-ethyl}-2,3-dihydro-isoindol-1-one] | – |
| 27.8 | > 5880 | – | O=C1NC(CCN2CCN(c3ccc(Cl)cc3)CC2)c2ccccc21 (stereo not drawn) [3-[2-(4-p-Chlorophenyl-piperazin-1-yl)-ethyl]-2,3-dihydro-isoindol-1-one] | – |
| 20.8 | > 5880 | – | Cc1nc(N2CCN(CCC3NC(=O)c4ccccc43)CC2)sc1C (stereo not drawn) [3-[2-(4-(4,5-Dimethyl-thiazol-2-yl)-piperazin-1-yl)-ethyl]-2,3-dihydro-isoindol-1-one] | – |
| 9.27 | – | 1210 | Cc1ccc(C2CCN(CCC3NC(=O)c4ccccc43)CC2)cc1C (stereo not drawn) [3-{2-[4-(3,4-Dimethyl-phenyl)-piperidin-1-yl]-ethyl}-2,3-dihydro-isoindol-1-one] | – |
| 8.77 | – | – | Cc1ccc(N2CCN(CCC3NC(=O)c4ccccc43)CC2)cc1C (stereo not drawn) [3-{2-[4-(3,4-Dimethyl-phenyl)-piperazin-1-yl]-ethyl}-2,3-dihydro-isoindol-1-one] | 3 |
| 7.8 | – | – | Cc1ccc(N2CCN(CCC3NC(=O)c4ccccc43)CC2)cc1C (single isomer, unassigned; (-)) [(-)-3-{2-[4-(3,4-Dimethyl-phenyl)-piperazin-1-yl]-ethyl}-2,3-dihydro-isoindol-1-one] | 1.5 |
